Data as given in patent US20250197864A1, “LNCRNA TRANSCRIPTS IN MELANOMAGENESIS” (The Regents of the University of California, priority 2021, published 2025).

System: gene expression in D04 melanoma cells
Test: RNA-Seq differential expression analysis (DESeq2)
Format: cell-based, human
Conditions: up-regulated list
Protocol: Total RNA was isolated using the RNeasy mini Kit (QIAGEN) following the manufacturer's protocol. Quality check for extracted RNA was done using 2100 Bioanalyzer (Agilent Technologies, USA) or Tapestation System (Agilent Technologies, USA). […] For samples used for identification of MAPK-responsive lncRNAs, paired-end, 101-bp sequencing was performed by Centrillion Genomic Services (Centrillion Biosciences, USA) on an Illumina HiSeq 2000. For DE gene analysis of ASO-transfected D04 samples, paired-end, 2×150-bp sequencing was performed by Genewiz (USA) on a Illumina HiSeq.
Sequence reads were aligned to the human genome (hg19) using TopHat (Version 2.0.11).
Differential expression (DE) analysis was done using DESeq2. Differentially expressed genes were defined by more than 1.5-fold changes (log 2 >0.58 or <−0.58) in expression with FDR<0.05. GO term analysis was done using DAVID Functional Annotation Clustering analysis.
To examine the biomolecular changes upon TRASH-inhibition in melanoma, D04 cells were treated with TRASH-ASOs (SEQ ID NO:15) and Control-ASOs and RNA was extracted and used for RNA-Seq. […] These GO terms consisted of genes encoding growth factors, tyrosine kinases, G protein coupled receptor subunits, and collagen subunits. Scatter plot diagram showing differential gene expression after TRASH-ASO treatment compared to Control-ASO treatment. (cut-off for significance was adjusted p-value <0.05). Data was obtained from RNA-Seq of D04 melanoma cells, treatment period was three days. (FIG. 5c)

GACTGGAGATAATTAA (gapmer, pattern not given here) [SEQ ID NO: 15, GapmeR ASO targeting AC004540.4 (TRASH), exon region of both isoforms; used for in vitro experiments]
log2FoldChange CSRNP1 (ENSG00000144655): 0.6637 | log2FoldChange MYH15 (ENSG00000144821): 1.163 | log2FoldChange PHLDB2 (ENSG00000144824): 0.8277 | log2FoldChange EAF2 (ENSG00000145088): 0.8471 | log2FoldChange ECE2 (ENSG00000145194): 0.8019 | log2FoldChange DDIT4L (ENSG00000145358): 0.9547 | log2FoldChange GFOD1 (ENSG00000145990): 0.6187 | log2FoldChange TRIM7 (ENSG00000146054): 0.7787 | log2FoldChange PM20D2 (ENSG00000146281): 0.6289 | log2FoldChange EGFR (ENSG00000146648): 0.8305 | log2FoldChange GCNA (ENSG00000147174): 0.8797 | log2FoldChange MAL2 (ENSG00000147676): 0.6498 | log2FoldChange RGS10 (ENSG00000148908): 0.5971 | log2FoldChange ST14 (ENSG00000149418): 1.17 | log2FoldChange PDCD4 (ENSG00000150593): 0.586 | log2FoldChange IL18 (ENSG00000150782): 0.6212 | log2FoldChange NOCT (ENSG00000151014): 0.6791 | log2FoldChange JMY (ENSG00000152409): 0.9323 | log2FoldChange NR4A2 (ENSG00000153234): 0.7664 | log2FoldChange CCDC148 (ENSG00000153237): 0.745 | log2FoldChange FAM167A (ENSG00000154319): 0.6771 | log2FoldChange LY96 (ENSG00000154589): 0.6345 | log2FoldChange HKDC1 (ENSG00000156510): 0.717 | log2FoldChange CD109 (ENSG00000156535): 0.6418 | log2FoldChange NRG1 (ENSG00000157168): 0.8358 | log2FoldChange WDR66 (ENSG00000158023): 1.174 | log2FoldChange TPRG1L (ENSG00000158109): 0.6032 | log2FoldChange XDH (ENSG00000158125): 0.6451 | log2FoldChange GDPD5 (ENSG00000158555): 0.6005 | log2FoldChange LAD1 (ENSG00000159166): 1.038 | log2FoldChange STC1 (ENSG00000159167): 0.8653 | log2FoldChange KLHL21 (ENSG00000162413): 0.8059 | log2FoldChange FBLIM1 (ENSG00000162458): 0.7967 | log2FoldChange ATF3 (ENSG00000162772): 0.6827 | log2FoldChange COQ8A (ENSG00000163050): 0.9489 | log2FoldChange CRYGC (ENSG00000163254): 1.014 | log2FoldChange PAQR3 (ENSG00000163291): 0.7134 | log2FoldChange KBTBD8 (ENSG00000163376): 1.017 | log2FoldChange IGFN1 (ENSG00000163395): 1.134 | log2FoldChange NKX6-1 (ENSG00000163623): 1.147 | log2FoldChange PLB1 (ENSG00000163803): 0.8869 | log2FoldChange LZTFL1 (ENSG00000163818): 0.6384 | log2FoldChange RAET1E (ENSG00000164520): 1.147 | log2FoldChange DAGLB (ENSG00000164535): 0.608 | log2FoldChange GPR85 (ENSG00000164604): 0.7923 | log2FoldChange SUN3 (ENSG00000164744): 0.9518 | log2FoldChange EN2 (ENSG00000164778): 1.028 | log2FoldChange FRAT1 (ENSG00000165879): 0.9146 | log2FoldChange GPR176 (ENSG00000166073): 0.7841 | log2FoldChange SVOP (ENSG00000166111): 1.178 | log2FoldChange C16orf71 (ENSG00000166246): 0.7026 | log2FoldChange C16orf46 (ENSG00000166455): 0.9764 | log2FoldChange GREM1 (ENSG00000166923): 1.047 | log2FoldChange CD3D (ENSG00000167286): 0.767 | log2FoldChange AXL (ENSG00000167601): 0.7701 | log2FoldChange DNAAF3 (ENSG00000167646): 0.6547 | log2FoldChange SERPINF2 (ENSG00000167711): 1.036 | log2FoldChange KRT80 (ENSG00000167767): 0.6697 | log2FoldChange ABCA3 (ENSG00000167972): 0.8489 | log2FoldChange CAVIN2 (ENSG00000168497): 1.053 | log2FoldChange IL12A (ENSG00000168811): 0.635 | log2FoldChange C8orf46 (ENSG00000169085): 0.7557 | log2FoldChange HSPB3 (ENSG00000169271): 0.6385 | log2FoldChange ZNF280A (ENSG00000169548): 0.9372 | log2FoldChange MT1E (ENSG00000169715): 0.8998 | log2FoldChange MZB1 (ENSG00000170476): 1.158 | log2FoldChange S1PR1 (ENSG00000170989): 0.6805 | log2FoldChange XAGE3 (ENSG00000171402): 0.6996 | log2FoldChange ZNF57 (ENSG00000171970): 0.6499 | log2FoldChange NIPAL4 (ENSG00000172548): 1.166 | log2FoldChange MUC13 (ENSG00000173702): 1.042 | log2FoldChange GOLT1A (ENSG00000174567): 0.9754 | log2FoldChange C11orf68 (ENSG00000175573): 0.673 | log2FoldChange TSPEAR (ENSG00000175894): 0.9662 | log2FoldChange ENTHD1 (ENSG00000176177): 0.5983 | log2FoldChange ZNF843 (ENSG00000176723): 0.9407 | log2FoldChange RIMKLA (ENSG00000177181): 0.711 | log2FoldChange JUN (ENSG00000177606): 0.715 | log2FoldChange ZNF619 (ENSG00000177873): 0.5884 | log2FoldChange ZNF114 (ENSG00000178150): 0.8507 | log2FoldChange KCTD12 (ENSG00000178695): 0.7298 | log2FoldChange FJX1 (ENSG00000179431): 0.6535 | log2FoldChange PLD6 (ENSG00000179598): 0.696 | log2FoldChange WDR97 (ENSG00000179698): 0.7195 | log2FoldChange B3GNT3 (ENSG00000179913): 0.7904 | log2FoldChange ANKRD18A (ENSG00000180071): 0.7649 | log2FoldChange OXTR (ENSG00000180914): 1.093
